We go through 30 molecules from patent publication US7205295B2, “Benzoxazin-3-ones and derivatives thereof as therapeutic agents” (Warner-Lambert Company LLC, priority 2002, dated 2007).

The assay deals with T1, PI3Kγ (p101/p110γ protein) (Homo sapiens, UniProt P48736).
T1 construct: HA; made in house; host or cells: Spodoptera frugiperda (Sf9) cells, baculovirus co-infection
The experiment in a line: PI3Kγ In Vitro Kinase Assay. It counts as biochemical. Particulars: purified recombinant p101/p110γ with G protein β1/γ2 subunits; 20 μM ATP, 25 μM PIP2; 20 minutes at room temperature. As for the experimental part: Spodtera frugiperda cells, grown in ESF921 media, were coinfected with baculovirus expressing a glu-tagged p101 and baculovirus expressing an HA-tagged p110γ, at a 3:1 ratio of p101 baculovirus to p110γ baculovirus. Sf9 cells were grown to 1×10^7 total cells/mL in 10L bioreactors and harvested 48-72 hours post infection. Samples of infected cells were then tested for expression of p101/p110γ PI3 kinase by immunoprecipitation and Western Blot analysis methods (see below). […] NaCl was added to 150 mM, and sodium cholate was added to 1% and mixed for another 45 minutes. The lysates were clarified by centrifugation for 25 minutes at 14,000 rpm. The lysates were then loaded over anti-glu-linked Protein-G Sepaharose beads (Covance Research Products, Richmond, Calif.) using 20 mL resin/50 g cell paste. […] PI3Kγ was eluted with 6 column volumes of wash buffer that contain 100 μg/mL of a peptide that competes for binding of the glu tag. […] The fractions were stored at -80° C. until further use. Spodtera frugiperda cells were coinfected with baculovirus expressing a glu-tagged G protein β1 and baculovirus expressing a G protein […] at a 1:1 ratio of glu-tagged G protein β1 baculovirus to G protein β2 baculovirus. Sf9 cells are grown in 10 L bioreactors and harvested 48-72 hours post infection. Samples of infected cells were tested for G protein β1/β2 expression by Western Blot analysis, as described below. Cell lysates were homogenized and loaded onto a column of glu-tagged beads as in Biological Example 1 and competed off the column with a glu peptide as described in Biological Example 1. The inhibitory properties of the compounds in Table 1 were assayed in an in vitro PI3K assay. In a 96-well polypropylene plate, each well was spotted with 2 μL of […] the desired final concentration of compound in DMSO. Purified recombinant p101/p110γ protein (0.03 μg; 2.7 nM) and G protein β1/γ2 subunits (0.09 μg; 57.7 nM) for each reaction was combined in the assay buffer (30 mM HEPES, 100 mM NaCl, 1 mM EGTA, and 1 mM DTT). ATP and [γ-^32P-ATP] (0.09 μCi) were added to this mixture so that the final ATP concentration in the reaction was 20 μM. Lipid micelles were formed by sonicating phosphatidylinositol-4,5-diphosphate (PIP2), phosphatidylethanolamine (PE), and Na-cholate in the assay buffer for 10 minutes, adding MgCL2 and incubating on ice for 20 minutes, for final concentrations of 25 μM PIP2, 300 [M PE, 0.02% Na-cholate, and 10 mM MgCl2 in the reaction. The reactions were started by adding equal volumes lipid and enzyme mixture in a total volume of 50 μL, allowed to run for 20 minutes at room temperature, and stopped with 100 μL 75 mM H3PO4. The lipid product was transferred to a glass fiber filter plate and washed with 75 mM H3PO4 several times. The presence of radioactive lipid product (PIP3) was measured by adding Wallac Optiphase mix to each well and counting in a Wallac 1450 Trilux plate reader (PerkinElmer Life Sciences Inc., Boston, Mass. 02118).

T1 sequence (P48736 whole entry, species assumed): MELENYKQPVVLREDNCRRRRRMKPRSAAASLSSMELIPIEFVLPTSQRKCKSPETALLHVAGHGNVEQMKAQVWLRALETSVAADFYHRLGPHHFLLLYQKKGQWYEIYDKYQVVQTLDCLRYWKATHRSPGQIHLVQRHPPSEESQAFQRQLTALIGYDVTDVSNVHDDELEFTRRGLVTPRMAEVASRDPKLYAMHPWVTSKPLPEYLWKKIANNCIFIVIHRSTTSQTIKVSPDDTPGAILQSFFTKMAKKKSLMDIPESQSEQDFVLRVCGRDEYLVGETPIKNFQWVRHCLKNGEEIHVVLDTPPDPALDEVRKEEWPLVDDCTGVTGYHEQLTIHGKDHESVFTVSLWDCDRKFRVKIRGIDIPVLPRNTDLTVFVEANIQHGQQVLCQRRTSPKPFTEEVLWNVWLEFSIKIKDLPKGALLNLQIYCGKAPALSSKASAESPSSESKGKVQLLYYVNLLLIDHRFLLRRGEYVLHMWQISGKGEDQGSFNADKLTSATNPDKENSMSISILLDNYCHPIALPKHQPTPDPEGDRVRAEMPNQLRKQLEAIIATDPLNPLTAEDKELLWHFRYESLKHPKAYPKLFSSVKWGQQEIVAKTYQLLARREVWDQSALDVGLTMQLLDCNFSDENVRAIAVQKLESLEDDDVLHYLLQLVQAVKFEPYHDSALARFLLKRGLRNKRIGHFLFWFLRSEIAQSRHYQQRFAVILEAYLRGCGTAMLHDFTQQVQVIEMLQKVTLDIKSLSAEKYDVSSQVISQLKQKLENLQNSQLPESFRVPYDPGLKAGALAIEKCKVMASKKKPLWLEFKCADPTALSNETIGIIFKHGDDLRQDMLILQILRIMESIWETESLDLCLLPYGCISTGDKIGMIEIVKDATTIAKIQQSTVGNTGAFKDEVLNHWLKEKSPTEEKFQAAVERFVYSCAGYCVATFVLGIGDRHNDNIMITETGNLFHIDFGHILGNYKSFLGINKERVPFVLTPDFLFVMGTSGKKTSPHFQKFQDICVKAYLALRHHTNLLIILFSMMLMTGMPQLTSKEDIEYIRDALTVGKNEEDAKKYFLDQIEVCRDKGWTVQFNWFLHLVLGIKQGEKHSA
T1 sequence (Q8WYR1 whole entry partner, species assumed): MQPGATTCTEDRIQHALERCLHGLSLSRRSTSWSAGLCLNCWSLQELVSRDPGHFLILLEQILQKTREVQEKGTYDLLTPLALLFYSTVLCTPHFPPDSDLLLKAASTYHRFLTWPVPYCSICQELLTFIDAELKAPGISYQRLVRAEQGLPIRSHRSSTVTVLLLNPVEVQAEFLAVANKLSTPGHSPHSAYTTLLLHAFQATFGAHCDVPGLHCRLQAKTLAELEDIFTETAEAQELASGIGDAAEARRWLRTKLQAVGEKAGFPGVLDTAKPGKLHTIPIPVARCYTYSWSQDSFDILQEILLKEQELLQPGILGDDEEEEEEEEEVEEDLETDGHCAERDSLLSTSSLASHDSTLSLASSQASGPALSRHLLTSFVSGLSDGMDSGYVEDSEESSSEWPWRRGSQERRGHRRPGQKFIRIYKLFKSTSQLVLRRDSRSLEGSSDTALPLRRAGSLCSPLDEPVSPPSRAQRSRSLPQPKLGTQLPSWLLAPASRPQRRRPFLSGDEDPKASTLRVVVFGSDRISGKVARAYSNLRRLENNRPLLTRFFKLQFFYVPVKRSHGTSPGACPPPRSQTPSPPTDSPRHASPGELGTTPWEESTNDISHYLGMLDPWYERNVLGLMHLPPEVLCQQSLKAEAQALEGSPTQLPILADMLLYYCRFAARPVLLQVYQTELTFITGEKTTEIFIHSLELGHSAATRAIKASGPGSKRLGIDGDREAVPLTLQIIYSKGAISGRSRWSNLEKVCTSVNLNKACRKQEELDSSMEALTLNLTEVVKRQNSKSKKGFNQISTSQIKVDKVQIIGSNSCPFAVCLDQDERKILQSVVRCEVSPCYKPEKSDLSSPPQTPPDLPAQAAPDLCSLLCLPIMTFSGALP

Take “4-(3-Chloro-4-fluoro-benzyl)-8-fluoro-6-(4-oxo-2-thioxo-thiazolidin-5-ylidenemethyl)-4H-benzo[1,4]oxazin-3-one [Example 309]”: the IC50 – broadly, the midpoint of a concentration-inhibition curve – stood at 2 nM. The same measure for “4-Ethyl-6-(4-oxo-2-thioxo-thiazolidin-5-ylidenemethyl)-4H-benzo[1,4]oxazin-3-one [Example 139]”: 42 nM; for “4-Methyl-6-(4-oxo-2-thioxo-oxazolidin-5-ylidenemethyl)-4a,8a-dihydro-4H-benzo[1,4]oxazin-3-one, Potassium Salt [Example 204]”: 16 nM. In the case of “5-{4-[3-(4-Methoxy-phenyl)-propyl]-3-oxo-3,4-dihydro-2H-benzo[1,4]oxazin-6-ylmethylene}-thiazolidine-2,4-dione [Example 125]” it was 18 nM. In the case of “8-Fluoro-4-(3-morpholin-4-yl-propyl)-6-(4-oxo-2-thioxo-thiazolidin-5-ylidenemethyl)-4H-benzo[1,4]oxazin-3-one [Example 242]” it was 55 nM. On to `O=C1COc2ccc(C=C3SC(=S)NC3=O)cc2N1` [Example 1, 6-(4-Oxo-2-thioxo-thiazolidin-5-ylidenemethyl)-4H-1,4-benzoxazin-3-one], for which the IC50 amounted to 78 nM.

For the molecule `CN1C(=O)COc2ccc(C=C3SC(=S)NC3=O)cc21` [Example 2, 4-Methyl-6-(4-oxo-2-thioxo-thiazolidin-5-ylidenemethyl)-4H-1,4-benzoxazin-3-one], the IC50 was determined as 45 nM. Consider `O=C(O)CN1C(=O)COc2ccc(C=C3SC(=S)NC3=O)cc21` [Example 3, [3-Oxo-6-(4-oxo-2-thioxo-thiazolidin-5-ylidenemethyl)-2,3-dihydro-1,4-benzoxazin-4-yl]-acetic acid], for which the IC50 amounted to 635 nM. Consider `O=C1NC(=S)SC1=Cc1ccc2c(c1)N(Cc1ccccc1)C(=O)CO2` [Example 4, 4-Benzyl-6-(4-oxo-2-thioxo-thiazolidin-5-ylidenemethyl)-4H-1,4-benzoxazin-3-one], for which the IC50 turned out to be 23 nM. With `O=C1NC(=S)SC1=Cc1ccc2c(c1)N(CCc1ccccc1)C(=O)CO2` [Example 5, 6-(4-Oxo-2-thioxo-thiazolidin-5-ylidenemethyl)-4-phenethyl-4H-1,4-benzoxazin-3-one], the IC50 was 25 nM.

As for `COc1cc(C=C2SC(=S)NC2=O)cc2c1OCC(=O)N2` [Example 6, 8-Methoxy-6-(4-oxo-2-thioxo-thiazolidin-5-ylidenemethyl)-4H-1,4-benzoxazin-3-one], the IC50 is 560 nM. The same measure for `COC(=O)CN1C(=O)COc2ccc(C=C3SC(=S)NC3=O)cc21` [Example 7, [3-Oxo-6-(4-oxo-2-thioxo-thiazolidin-5-ylidenemethyl)-2,3-dihydro-1,4-benzoxazin-4-yl]-acetic acid methyl ester]: 84 nM; for `COC(=O)c1cccc(CN2C(=O)COc3ccc(C=C4SC(=S)NC4=O)cc32)c1` [Example 8, 3-[3-Oxo-6-(4-oxo-2-thioxo-thiazolidin-5-ylidenemethyl)-2,3-dihydro-1,4-benzoxazin-4-ylmethyl]-benzoic acid methyl ester]: 81 nM; for `O=C1NC(=S)SC1=Cc1ccc2c(c1)N(Cc1ccc(-c3ccccc3)cc1)C(=O)CO2` [Example 9, 4-Biphenyl-4-ylmethyl-6-(4-oxo-2-thioxo-thiazolidin-5-ylidenemethyl)-4H-1,4-benzoxazin-3-one]: 61 nM. In the case of `O=C(O)CN1C(=O)C(=Cc2ccc3c(c2)NC(=O)CO3)SC1=S` [Example 10, [4-Oxo-5-(3-oxo-3,4-dihydro-2H-1,4-benzoxazin-6-ylmethylene)-2-thioxo-thiazolidin-3-yl]-acetic acid; compound with trifluoro-acetic acid] it was 3630 nM.

As for `O=C1NC(=S)SC1=Cc1ccc2c(c1)N(Cc1ccc3ccccc3c1)C(=O)CO2` [Example 11, 4-Naphthalen-2-ylmethyl-6-(4-oxo-2-thioxo-thiazolidin-5-ylidenemethyl)-4H-1,4-benzoxazin-3-one], the IC50 is 61 nM. In the case of `O=C1NC(=S)SC1=Cc1ccc2c(c1)N(Cc1cccnc1)C(=O)CO2` [Example 12, 6-(4-Oxo-2-thioxo-thiazolidin-5-ylidenemethyl)-4-pyridin-3-ylmethyl-4H-1,4-benzoxazin-3-one] it was 27 nM; in that of `C[C@@H]1Oc2ccc(C=C3SC(=S)NC3=O)cc2NC1=O` [Example 13, (S)-2-Methyl-6-(4-oxo-2-thioxo-thiazolidin-5-ylidenemethyl)-4H-1,4-benzoxazin-3-one], 745 nM; in that of `Cc1cc(C)cc(CN2C(=O)COc3ccc(C=C4SC(=S)NC4=O)cc32)c1` [Example 14, 4-(3,5-Dimethyl-benzyl)-6-(4-oxo-2-thioxo-thiazolidin-5-ylidenemethyl)-4H-1,4-benzoxazin-3-one], 5 nM. In the case of `O=C1NC(=S)SC1=Cc1ccc2c(c1)N(Cc1cccc(OCc3ccccc3)c1)C(=O)CO2` [Example 15, 4-(3-Benzyloxy-benzyl)-6-(4-oxo-2-thioxo-thiazolidin-5-ylidenemethyl)-4H-1,4-benzoxazin-3-one] it was 13 nM; in that of `Cc1cc(C=C2SC(=S)NC2=O)c(C)c2c1OCC(=O)N2` [Example 16, 5,8-Dimethyl-6-(4-oxo-2-thioxo-thiazolidin-5-ylidenemethyl)-4H-benzo[1,4]oxazin-3-one], 328 nM; in that of `O=C1NC(=S)SC1=Cc1ccc2c(c1)N(Cc1cccc(C(=O)O)c1)C(=O)CO2` [Example 17, 3-[3-Oxo-6-(4-oxo-2-thioxo-thiazolidin-5-ylidenemethyl)-2,3-dihydro-1,4-benzoxazin-4-ylmethyl]-benzoic acid], 9 nM. As for `C[C@@H]1Oc2ccc(C=C3SC(=S)NC3=O)cc2N(Cc2ccccc2)C1=O` [Example 18, (S)-4-Benzyl-2-methyl-6-(4-oxo-2-thioxo-thiazolidin-5-ylidenemethyl)-4H-1,4-benzoxazin-3-one], the IC50 is 319 nM.

For `O=C1NC(=S)SC1=Cc1ccc2c(c1)N(Cc1ccc(CN3CCCCC3)cc1)C(=O)CO2` [Example 19, 4-(4-Piperidin-1-ylmethyl-benzyl)-6-(4-oxo-2-thioxo-thiazolidin-5-ylidenemethyl)-4H-1,4-benzoxazin-3-one], the IC50 was found to be 8 nM. The same measure for `O=C1NC(=S)SC1=Cc1ccc2c(c1)N(Cc1ccc(CN3CCOCC3)cc1)C(=O)CO2` [Example 20, 4-(4-Morpholin-4-ylmethyl-benzyl)-6-(4-oxo-2-thioxo-thiazolidin-5-ylidenemethyl)-4H-1,4-benzoxazin-3-one]: 3 nM; for `CCN(CC)Cc1ccc(CN2C(=O)COc3ccc(C=C4SC(=S)NC4=O)cc32)cc1` [Example 21, 4-(4-Diethylaminomethyl-benzyl)-6-(4-oxo-2-thioxo-thiazolidin-5-ylidenemethyl)-4H-1,4-benzoxazin-3-one]: 14 nM; for `CC(=O)OCc1ccccc1CN1C(=O)COc2ccc(C=C3SC(=S)NC3=O)cc21` [Example 22, Acetic acid 2-[3-oxo-6-(4-oxo-2-thioxo-thiazolidin-5-ylidenemethyl)-2,3-dihydro-1,4-benzoxazin-4-ylmethyl]-benzyl ester]: 17 nM. In the case of `O=C1NC(=S)SC1=Cc1ccc2c(c1)N(Cc1ccc(OCc3ccccc3)cc1)C(=O)CO2` [Example 23, 4-(4-Benzyloxy-benzyl)-6-(4-oxo-2-thioxo-thiazolidin-5-ylidenemethyl)-4H-1,4-benzoxazin-3-one] it was 5 nM; in that of `O=C1NC(=S)SC1=Cc1ccc2c(c1)N(Cc1ccccc1CO)C(=O)CO2` [Example 24, 4-(2-Hydroxymethyl-benzyl)-6-(4-oxo-2-thioxo-thiazolidin-5-ylidenemethyl)-4H-1,4-benzoxazin-3-one], 3 nM; in that of `O=C1NC(=S)SC1=Cc1ccc2c(c1)N(Cc1ccc(Oc3cccc4ccccc34)cc1)C(=O)CO2` [Example 25, 4-[4-(Naphthalen-1-yloxy)-benzyl]-6-(4-oxo-2-thioxo-thiazolidin-5-ylidenemethyl)-4H-1,4-benzoxazin-3-one], 8 nM.
